Laboratory results: US9663899B2, “Method for making lignocellulosic paper and paper product” (Solenis Technologies, L.P., priority 2015, dated 2017)

System: Laccase NS51003
Experiment: ABTS laccase assay for relative laccase activity
Type: biochemical, Aspergillus
Protocol: One unit of activity is equal to the micromole of the oxidized product from ABTS per min per mg protein at pH 4.0 to 6.0 at 23° C. in an acetate buffer. […] A diluted enzyme solution (1.5 milliliter (ml)) was added to a mixture of 1.5 ml ABTS (0.5 millimole (mM)) solution and 1.5 ml of sodium acetate buffer (1 mM) to initiate the oxidization reaction. After mixing, incubation was conducted at 23° C., while the change in absorbance per minute was measured at 420 nm. Two Aspergillus laccases were used both from Novozymes (Bagsvaerd, Denmark), to compare with the enzyme compositions. […] NS51002 alone worked best at pH 4-5 while NS51003 worked best at pH 5-6. The ABTS laccase assay was used to evaluate the effects of cationic fixative polymer, lipase and the laccase activator of the dry strength compositions on laccase activity. The same amount of laccase active in each composition was used in the assay. In Table III, the relative activity numbers were determined by normalizing the values based on that of laccase alone at 100%.

**Q.** What does the source list for `O=S(=O)([O-])[O-].[Cu+2]` [copper sulfate]?
**A.** effect on laccase activity (copper level 0.5 wt. %): lost some of its original activity; effect on laccase activity (copper sulfate in the composition): not significant; effect on laccase activity (dosage of copper sulfate higher than 0.5%): negatively affected
